Laboratory results as given in US20090306133A1, “New Acetyl Coenzyme A Carboxylase (ACC) Inhibitors And Uses In Treatments Of Obesity And Diabetes Mellitus - 087” (ASTRAZENECA AB, priority 2007, published 2009).

Legend:
[1] = target: Human recombinant Acetyl-CoA Carboxylase 1 (ACC1) (Homo sapiens, UniProt Q13085); test: Assay Y: ACC1 inhibition, inorganic phosphate (Malachite Green); format: biochemical; conditions: Assay Y: room temperature, 3 hr, 15 min preincubation
Procedure: (§1) Preincubation of 6 μL enzyme together with 0.3 μL compound for 15 min was done before the reaction was initiated by the addition of 4 μL substrate. […] After 3 hr the reaction was stopped by addition of 60 μL of water followed by 30 μL Malachite Green solution. The Malachite Green solution was prepared by mixing 16.4 mL ammonium molybdate solution (7.5%), 1.64 mL Tween (11%) with 82 mL Malachite Green/H2SO4-solution (0.7 g Malachite Green to 1000 mL of 10% (v/v) H2SO4). Plates were left for 10 min at room temperature before reading the absorbance at 670 nm. All compounds were tested in triplicate at 10 different concentrations. Control compound (0, 50 and 100% effect) was included on each plate. […] An IC50 value was derived by non-linear regression curve fitting using the following equation: […]))) where A is the non-specific binding, B is the total binding, C is the IC50 and D is the slope. Saturation binding Kd and Bmax were derived using the equation y=((B1 max*x)/(Kd+x)).

[2] = target: Human recombinant Acetyl-CoA Carboxylase 2 (ACC2) (Homo sapiens, UniProt O00763); test: Assay Y: ACC2 inhibition, inorganic phosphate (Malachite Green); format: biochemical; conditions: Assay Y: room temperature, 3 hr, 15 min preincubation
Procedure: as §1

Chain of Human recombinant Acetyl-CoA Carboxylase 2 (ACC2) (O00763 whole entry): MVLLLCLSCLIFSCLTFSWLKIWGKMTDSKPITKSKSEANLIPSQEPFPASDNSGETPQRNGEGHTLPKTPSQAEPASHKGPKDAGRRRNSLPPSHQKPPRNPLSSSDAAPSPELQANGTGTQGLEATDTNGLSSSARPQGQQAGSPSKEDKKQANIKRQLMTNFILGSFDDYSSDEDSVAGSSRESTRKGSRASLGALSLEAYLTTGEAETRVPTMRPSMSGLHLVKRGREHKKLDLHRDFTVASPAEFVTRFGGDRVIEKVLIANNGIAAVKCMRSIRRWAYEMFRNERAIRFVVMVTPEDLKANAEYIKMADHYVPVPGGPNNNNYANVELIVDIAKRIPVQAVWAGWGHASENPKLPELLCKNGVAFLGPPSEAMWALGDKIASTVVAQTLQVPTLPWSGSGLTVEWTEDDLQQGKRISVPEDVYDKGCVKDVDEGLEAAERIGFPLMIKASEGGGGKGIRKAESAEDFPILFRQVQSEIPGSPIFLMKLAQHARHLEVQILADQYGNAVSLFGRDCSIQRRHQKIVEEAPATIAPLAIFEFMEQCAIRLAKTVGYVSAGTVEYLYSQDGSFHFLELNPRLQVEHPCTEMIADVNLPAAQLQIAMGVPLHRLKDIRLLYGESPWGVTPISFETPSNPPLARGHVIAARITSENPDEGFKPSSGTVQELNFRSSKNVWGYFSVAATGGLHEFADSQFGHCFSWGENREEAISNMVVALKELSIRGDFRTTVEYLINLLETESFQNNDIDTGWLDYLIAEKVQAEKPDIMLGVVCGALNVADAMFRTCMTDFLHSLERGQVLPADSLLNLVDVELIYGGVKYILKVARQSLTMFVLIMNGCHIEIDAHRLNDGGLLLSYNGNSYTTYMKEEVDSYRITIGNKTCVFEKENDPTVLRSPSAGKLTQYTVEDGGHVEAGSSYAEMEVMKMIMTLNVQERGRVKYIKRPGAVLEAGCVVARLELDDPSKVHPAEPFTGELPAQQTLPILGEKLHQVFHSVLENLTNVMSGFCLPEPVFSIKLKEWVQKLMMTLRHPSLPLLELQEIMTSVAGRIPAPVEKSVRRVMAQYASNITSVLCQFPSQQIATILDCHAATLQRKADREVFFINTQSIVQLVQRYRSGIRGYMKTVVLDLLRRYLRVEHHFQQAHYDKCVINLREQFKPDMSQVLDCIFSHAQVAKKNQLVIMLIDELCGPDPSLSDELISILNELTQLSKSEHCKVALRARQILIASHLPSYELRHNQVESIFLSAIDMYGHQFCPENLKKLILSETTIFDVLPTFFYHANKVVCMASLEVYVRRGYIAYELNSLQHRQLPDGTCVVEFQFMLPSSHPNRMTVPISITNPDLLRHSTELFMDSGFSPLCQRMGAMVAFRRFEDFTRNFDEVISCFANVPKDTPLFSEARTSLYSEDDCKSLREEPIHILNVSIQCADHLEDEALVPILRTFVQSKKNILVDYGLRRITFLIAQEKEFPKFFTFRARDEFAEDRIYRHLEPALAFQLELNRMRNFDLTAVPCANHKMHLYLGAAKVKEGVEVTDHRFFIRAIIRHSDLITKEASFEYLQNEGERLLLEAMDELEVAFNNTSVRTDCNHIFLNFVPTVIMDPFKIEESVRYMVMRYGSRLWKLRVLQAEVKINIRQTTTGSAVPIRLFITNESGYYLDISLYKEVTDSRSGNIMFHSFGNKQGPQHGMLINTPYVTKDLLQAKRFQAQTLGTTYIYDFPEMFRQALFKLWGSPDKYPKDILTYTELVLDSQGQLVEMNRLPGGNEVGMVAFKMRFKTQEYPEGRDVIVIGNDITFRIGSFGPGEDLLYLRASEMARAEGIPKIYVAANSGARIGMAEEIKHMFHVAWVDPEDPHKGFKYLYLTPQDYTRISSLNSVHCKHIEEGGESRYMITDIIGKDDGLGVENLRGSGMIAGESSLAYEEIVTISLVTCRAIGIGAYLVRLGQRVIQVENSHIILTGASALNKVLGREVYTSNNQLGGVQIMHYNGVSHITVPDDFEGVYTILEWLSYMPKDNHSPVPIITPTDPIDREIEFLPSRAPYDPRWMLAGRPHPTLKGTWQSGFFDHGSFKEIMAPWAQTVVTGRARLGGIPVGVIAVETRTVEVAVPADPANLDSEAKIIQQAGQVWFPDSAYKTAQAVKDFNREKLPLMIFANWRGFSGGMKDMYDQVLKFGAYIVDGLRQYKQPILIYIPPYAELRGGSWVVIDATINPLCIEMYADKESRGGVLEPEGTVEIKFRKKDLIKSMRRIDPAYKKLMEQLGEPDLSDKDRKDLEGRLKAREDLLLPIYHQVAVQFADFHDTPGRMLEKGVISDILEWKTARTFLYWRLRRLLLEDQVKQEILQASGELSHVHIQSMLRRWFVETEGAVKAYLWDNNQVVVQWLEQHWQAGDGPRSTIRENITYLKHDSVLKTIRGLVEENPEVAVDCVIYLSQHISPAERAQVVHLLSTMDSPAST

Row | SMILES | IC50 [1] [µM] | IC50 [2] [µM]
1 | CC(C)(C)OC(=O)NC[C@H]1CC[C@H](CNC(=O)c2cc(-c3ccc(C#N)cc3)nc3ccccc23)CC1 [Example 34, tert-Butyl ({trans-4-[({[2-(4-cyanophenyl)quinolin-4-yl]carbonyl}amino)methyl]cyclo-hexyl}methyl)carbamate] | 1.17 | 0.22
2 | CC(C)(C)OC(=O)NC[C@H]1CC[C@H](CNC(=O)c2cc(Cl)nc3ccccc23)CC1 [Example 35, tert-butyl {[trans-4-({[(2-chloroquinolin-4-yl)carbonyl]amino}methyl)cyclohexyl]-methyl}carbamate] | 9.96 | 3.84
3 | COc1cc(C(=O)NC[C@H]2CC[C@H](CNC(=O)OC(C)(C)C)CC2)cc(-c2ccc(CN)cc2)n1 [Example 36, tert-Butyl ({trans-4-[({2-[4-(aminomethyl)phenyl]-6-methoxyisonicotinoyl}-amino)methyl]cyclohexyl}methyl)carbamate] | 3.95 | 1.59
4 | CC(C)(C)OC(=O)NC[C@H]1CC[C@H](CNC(=O)c2cc(-c3ccc(CN)cc3)ncc2Cl)CC1 [Example 37, tert-Butyl ({trans-4-[({2-[4-(aminomethyl)phenyl]-5-chloroisonicotinoyl}amino)-methyl]cyclohexyl}methyl)carbamate] | 3.69 | 0.47
5 | Cc1cc(C(=O)NC[C@H]2CC[C@H](CNC(=O)OC(C)(C)C)CC2)cc(-c2ccc(CN)cc2)n1 [Example 38, tert-Butyl ({trans-4-[({2-[4-(aminomethyl)phenyl]-6-methylisonicotinoyl}amino)-methyl]cyclohexyl}methyl)carbamate] | 5.44 | 4.05
6 | CC(C)(C)OC(=O)NC[C@H]1CC[C@H](CNC(=O)c2cc(-c3cccc(CN)c3)nc3ccccc23)CC1 [Example 39, tert-Butyl [(trans-4-{[({2-[3-(aminomethyl)phenyl]quinolin-4-yl}carbonyl)amino]-methyl}cyclohexyl)methyl]carbamate] | 0.22 | 0.02
7 | CC(C)(C)OC(=O)NC[C@H]1CC[C@H](CNC(=O)c2cc(-c3cccc(CC(=O)O)c3)nc3ccccc23)CC1 [Example 40, [3-(4-{[(trans-4-{[(tert-Butoxycarbonyl)amino]methyl}cyclohexyl)methyl]-carbamoyl}quinolin-2-yl)phenyl]acetic Acid] | 8.64 | 1
8 | CC(C)(C)OC(=O)NC[C@H]1CC[C@H](CNC(=O)c2ccnc(-c3ccccc3)c2)CC1 [Example 41, tert-Butyl [(trans-4-{[(2-phenylisonicotinoyl)amino]methyl}cyclohexyl)methyl]-carbamate] | 6.63 | 4.54
9 | COc1ccc(-c2cc(C(=O)NC[C@H]3CC[C@H](CNC(=O)OC(C)(C)C)CC3)ccn2)cc1 [Example 42, tert-Butyl {[trans-4-({[2-(4-methoxyphenyl)isonicotinoyl]amino}methyl)cyclo-hexyl]methyl}carbamate] | 12.8 | 6.14
10 | Cc1cc(C(=O)NC[C@H]2CC[C@H](CNC(=O)OC(C)(C)C)CC2)cc(-c2ccccc2)n1 [Example 43, tert-Butyl [(trans-4-{[(2-methyl-6-phenylisonicotinoyl)amino]methyl}cyclohexyl)-methyl]carbamate] | 8.31 | 5.82
11 | CC(C)(C)OC(=O)NC[C@H]1CC[C@H](CNC(=O)c2cncc(-c3ccccc3)c2)CC1 [Example 44, tert-Butyl {[trans-4-({[(5-phenylpyridin-3-yl)carbonyl]amino}methyl)cyclohexyl]-methyl}carbamate] | 13 | 9.71
12 | CC(C)(C)OC(=O)NC[C@H]1CC[C@H](CNC(=O)c2ccnc(-c3cc4ccccc4s3)c2)CC1 [Example 45, tert-Butyl {[trans-4-({[2-(1-benzothiophen-2-yl)isonicotinoyl]amino}methyl)cyclo-hexyl]methyl}carbamate] | > 20 | 4.35
13 | CCOc1ccc(-c2cc(C(=O)NC[C@H]3CC[C@H](CNC(=O)OC(C)(C)C)CC3)ccn2)cn1 [Example 46, tert-Butyl {[trans-4-({[(6′-ethoxy-2,3′-bipyridin-4-yl)carbonyl]amino}methyl)cyclohexyl]methyl}carbamate] | > 20 | 9.53
14 | COc1ccc(-c2cc(C(=O)NC[C@H]3CC[C@H](CNC(=O)OC(C)(C)C)CC3)ccn2)c(OC)c1 [Example 47, tert-Butyl {[trans-4-({[2-(2,4-dimethoxyphenyl)isonicotinoyl]amino}methyl)cyclohexyl]methyl}carbamate] | 14.1 | 9.85
15 | COc1ccc(-c2cc(C(=O)NC[C@H]3CC[C@H](CNC(=O)OC(C)(C)C)CC3)ccn2)c(OC)n1 [Example 48, tert-Butyl {[trans-4-({[(2′,6′-dimethoxy-2,3′-bipyridin-4-yl)carbonyl]amino}methyl)-cyclohexyl]methyl}carbamate] | > 20 | 9.67
16 | COc1ccc(-c2cc(C(=O)NC[C@H]3CC[C@H](CNC(=O)OC(C)(C)C)CC3)ccn2)cn1 [Example 49, tert-Butyl {[trans-4-({[(6′-methoxy-2,3′-bipyridin-4-yl)carbonyl]amino}methyl)cyclohexyl]methyl}carbamate] | 7.6 | 9.87
17 | CC(C)(C)OC(=O)NC[C@H]1CC[C@H](CNC(=O)c2ccnc(-c3ccc(C(N)=O)cc3)c2)CC1 [Example 50, tert-Butyl {[trans-4-({[2-(4-carbamoylphenyl)isonicotinoyl]amino}methyl)cyclohexyl]-methyl}carbamate] | 5.3 | 6.82
18 | CC(C)(C)OC(=O)NC[C@H]1CC[C@H](CNC(=O)c2ccnc(-c3cccc(Cl)c3)c2)CC1 [Example 51, tert-Butyl {[trans-4-({[2-(3-chlorophenyl)isonicotinoyl]amino}methyl)cyclohexyl]-methyl}carbamate] | > 20 | 5.67
19 | CC(C)(C)OC(=O)NC[C@H]1CC[C@H](CNC(=O)c2ccnc(-c3ccc(CN)cc3)c2)CC1 [Example 52, tert-Butyl ({trans-4-[({2-[4-(aminomethyl)phenyl]isonicotinoyl}amino)methyl]cyclo-hexyl}methyl)carbamate] | 8.23 | 7.66
20 | CC(C)(C)OC(=O)NC[C@H]1CC[C@H](CNC(=O)c2ccnc(-c3ccc(F)c(F)c3)c2)CC1 [Example 53, tert-Butyl {[trans-4-({[2-(3,4-difluorophenyl)isonicotinoyl]amino}methyl)cyclohexyl]-methyl}carbamate] | > 20 | 9.08
21 | CCOC(=O)NC[C@H]1CC[C@H](CNS(=O)(=O)c2ccc3ccccc3c2)CC1 [Example 54, Ethyl [(trans-4-{[(2-naphthylsulfonyl)amino]methyl}cyclohexyl)methyl]carbamate] | > 20 | 3.99
22 | CC(C)(C)COC(=O)NC[C@H]1CC[C@H](CNC(=O)c2cc(-c3ccncc3)nc3ccccc23)CC1 [Example 55, 2,2-Dimethylpropyl {[trans-4-({[(2-pyridin-4-ylquinolin-4-yl)carbonyl]amino}methyl)-cyclohexyl]methyl}carbamate] | 1.3 | 0.28
